From patent US8071290B2, “Hypermethylation of GATA-4 and GATA-5 transcription factor genes in cancer” (Johns Hopkins University School of Medicine, priority 2003, dated 2011)
Marks after values point to notes of the source that are not given here.

Key:
Assay type in all cases: cell-based, human
[1] = test system: RKO colon cancer cell line; assay: DAC treatment, gene expression by RT-PCR in RKO; design: key to GATA-5 expression (Exp, A = DAC treatment) / GATA-6 expression (Exp, A = DAC treatment) / TFF1 expression (Exp, A = DAC treatment) / TFF2 expression (Exp, A = DAC treatment) / TFF3 expression (Exp, A = DAC treatment) / Inhibin α expression (Exp, A = DAC treatment) / Dab2 expression (Exp, A = DAC treatment) / GATA-4 expression (Exp, A = DAC treatment): −: Undetectable level; +: detectable level of expression, by RT-PCR; ++: increased expression level from +basal level
Method: (§1) The CRC and Az521 cell lines were grown in DMEM, MEM or McCoy's medium supplemented with 10% fetal bovine serum, penicillin and streptomycin. For demethylation studies, cells were treated daily with […] 5-aza-2′deoxycytidine (DAC; Sigma Chemical Co.; St. Louis Mo.) for 48 hr (41). Az521 and HCT116 cells also were treated with the histone deacetylase inhibitor, TSA (Wako), alone, or with a combination of DAC plus TSA (41; 6). Total RNA was isolated using the TRIZOL reagent (Invitrogen Corp.; Carlsbad Calif.).
(§2) For RT-PCR, 2 μg of total RNA was reverse transcribed using the SUPERSCRIPT reverse transcription kit (Invitrogen); all genes were amplified with multiple cycle numbers (28-35 cycles) for obtaining semi-quantitative differences in their expression levels. Primer pairs for GATA-1 to GATA-6 and for the GATA-5 target genes are shown in Table 2 (see, also, Bai et al., Mol. Carcinog. 28:184-188, 2000, which is incorporated herein by reference). Annealing was performed at the indicated temperatures, and PCR was performed for the indicated number of cycles (Table 2, below). PCR conditions were as follows: first denature, 95° C., 5 min; denature, 95° C., 1 min; anneal, temperature shown in Table 2 (° C.), 1 min; extension, 72° C., 1 min; final extension, 72° C., 10 min.
(§3) GATA-4, GATA-5and GATA-6 expression was examined in gastrointestinal cancer cell lines. GATA-4, GATA-5 and GATA-6 expression levels were examined by RT-PCR in seven cancer cell lines (colon cancer cell lines RKO, DLD1, HCT116, HT29, LoVo, and SW480; and gastric cancer cell line AZ521) with or without (mock) treatment with 5′-aza-2′-deoxycytidine (DAC) and in normal colonic mucosa (NC) and peripheral blood lymphocytes (PBL). GAPDH expression was used for an internal loading control for the RT-PCR. Gastric cancer cells, AZ521, were treated with low dose DAC alone, TSA alone, or a combination of these two drugs (A/T), or were mock treated, and examined by RT-PCR. GATA-4 and GATA-5 expression were examined in wild type (WT) HCT116 colon cancer cells, and two clones each of these cells in which both alleles of DNA methyltransferase 1 (DNMTI-KO), DNMT 3b (DNMT3b-KO), or both DNMTs were knocked out (21). PCR products recognizing unmethylated and methylated CpG sites were analyzed in 2.5% agarose gels stained by ethidium bromide.

[2] = test system: DLD1 colon cancer cell line; assay: DAC treatment, gene expression by RT-PCR in DLD1; design: key: −: Undetectable level; +: detectable level of expression, by RT-PCR; ++: increased expression level from +basal level; conditions: 5 pM DAC daily for 48 hr
Method: as §1, §2, §3

[3] = test system: HCT116 colon cancer cell line; assay: DAC treatment, gene expression by RT-PCR in HCT116; design: key to GATA-5 expression (Exp, A = DAC treatment) / GATA-6 expression (Exp, A = DAC treatment) / TFF1 expression (Exp, A = DAC treatment) / TFF2 expression (Exp, A = DAC treatment) / TFF3 expression (Exp, A = DAC treatment) / Inhibin α expression (Exp, A = DAC treatment) / Dab2 expression (Exp, A = DAC treatment) / GATA-4 expression (Exp, A = DAC treatment): −: Undetectable level; +: detectable level of expression, by RT-PCR; ++: increased expression level from +basal level
Method: as §1, §2, §3

[4] = test system: HT29 colon cancer cell line; assay: DAC treatment, gene expression by RT-PCR in HT29; design: key: −: Undetectable level; +: detectable level of expression, by RT-PCR; ++: increased expression level from +basal level; conditions: 5 pM DAC daily for 48 hr
Method: as §1, §2, §3

[5] = test system: LoVo colon cancer cell line; assay: DAC treatment, gene expression by RT-PCR in LoVo; design: key: −: Undetectable level; +: detectable level of expression, by RT-PCR; ++: increased expression level from +basal level; conditions: 5 pM DAC daily for 48 hr
Method: as §1, §2, §3

[6] = test system: SW480 colon cancer cell line; assay: DAC treatment, gene expression by RT-PCR in SW480; design: key: −: Undetectable level; +: detectable level of expression, by RT-PCR; ++: increased expression level from +basal level; conditions: 5 pM DAC daily for 48 hr
Method: as §1, §2, §3

[7] = test system: AZ521 gastric cancer cell line; assay: DAC treatment, gene expression by RT-PCR in AZ521; design: key to GATA-4 expression (Exp, A = DAC treatment) / GATA-5 expression (Exp, A = DAC treatment) / GATA-6 expression (Exp, A = DAC treatment) / TFF1 expression (Exp, A = DAC treatment) / TFF2 expression (Exp, A = DAC treatment) / TFF3 expression (Exp, A = DAC treatment) / Inhibin α expression (Exp, A = DAC treatment) / Dab2 expression (Exp, A = DAC treatment): −: Undetectable level; +: detectable level of expression, by RT-PCR; ++: increased expression level from +basal level
Method: as §1, §2, §3

[8] = test system: colon cancer cell lines RKO, DLD1, HCT116, HT29, LoVo, and SW480; and gastric cancer cell line AZ521; assay: DAC treatment of the seven cancer cell lines, RT-PCR
Method: as §1, §2
as §3, with “GATA-4 and GATA-5 expression were examined in wild type (WT) HCT116 colon cancer cells, and two clones each of these cells in which both alleles of DNA methyltransferase 1 (DNMTI-KO), DNMT 3b (DNMT3b-KO), or both DNMTs were knocked out (21).” left out

[9] = test system: Gastric cancer cells, AZ521; assay: TSA alone or low dose DAC plus TSA, RT-PCR of GATA-4 and GATA-5
Method: as §1
as §2, with “PCR conditions were as follows: first denature, 95° C., 5 min; denature, 95° C., 1 min; anneal, temperature shown in Table 2 (° C.), 1 min; extension, 72° C., 1 min; final extension, 72° C., 10 min.” left out
GATA-4, GATA-5and GATA-6 expression was examined in gastrointestinal cancer cell lines. […] PCR products recognizing unmethylated and methylated CpG sites were analyzed in 2.5% agarose gels stained by ethidium bromide.

[10] = 5 pM DAC daily for 48 hr, RT-PCR
[11] = HCT116, 5 pM DAC daily for 48 hr, RT-PCR
[12] = AZ521, 5 pM DAC daily for 48 hr, RT-PCR

Nc1ncn([C@H]2C[C@H](O)[C@@H](CO)O2)c(=O)n1 [DAC, 5-aza-2′-deoxycytidine]
TFF2 re-expression after DAC treatment [1]: did not re-express | Dab2 expression (Exp, A = DAC treatment) [1, 10]: + | GATA-4 expression (Exp, A = DAC treatment) [1, 10]: + | GATA-5 expression (Exp, A = DAC treatment) [1, 10]: + | GATA-6 expression (Exp, A = DAC treatment) [1, 10]: + | Inhibin α expression (Exp, A = DAC treatment) [1, 10]: + | TFF1 expression (Exp, A = DAC treatment) [1, 10]: + | TFF2 expression (Exp, A = DAC treatment) [1, 10]: − | TFF3 expression (Exp, A = DAC treatment) [1, 10]: + | Dab2 reactivation following DAC treatment ([1]; gene basally silent): reactivated | Dab2 expression (Exp, A = DAC treatment) [2]: + | GATA-4 expression (Exp, A = DAC treatment) [2]: + | GATA-5 expression (Exp, A = DAC treatment) [2]: + | GATA-6 expression (Exp, A = DAC treatment) [2]: + | Inhibin α expression (Exp, A = DAC treatment) [2]: + | TFF1 expression (Exp, A = DAC treatment) [2]: ++ | TFF2 expression (Exp, A = DAC treatment) [2]: + | TFF3 expression (Exp, A = DAC treatment) [2]: + | TFF2 activation by DAC ([3]; HCT116, TFF2 promoter present): readily activated | Dab2 expression (Exp, A = DAC treatment) [3, 11]: + | GATA-4 expression (Exp, A = DAC treatment) [3, 11]: + | GATA-5 expression (Exp, A = DAC treatment) [3, 11]: + | GATA-6 expression (Exp, A = DAC treatment) [3, 11]: + | Inhibin α expression (Exp, A = DAC treatment) [3, 11]: + | TFF1 expression (Exp, A = DAC treatment) [3, 11]: + | TFF2 expression (Exp, A = DAC treatment) [3, 11]: + | TFF3 expression (Exp, A = DAC treatment) [3, 11]: + | Dab2 expression (Exp, A = DAC treatment) [4]: + | GATA-4 expression (Exp, A = DAC treatment) [4]: + | GATA-5 expression (Exp, A = DAC treatment) [4]: + | GATA-6 expression (Exp, A = DAC treatment) [4]: + | TFF1 expression (Exp, A = DAC treatment) [4]: ++ | TFF2 expression (Exp, A = DAC treatment) [4]: + | TFF3 expression (Exp, A = DAC treatment) [4]: + | Dab2 expression (Exp, A = DAC treatment) [5]: + | GATA-4 expression (Exp, A = DAC treatment) [5]: ++^4) | GATA-5 expression (Exp, A = DAC treatment) [5]: ++ | GATA-6 expression (Exp, A = DAC treatment) [5]: + | Inhibin α expression (Exp, A = DAC treatment) [5]: ++ | TFF1 expression (Exp, A = DAC treatment) [5]: ++ | TFF2 expression (Exp, A = DAC treatment) [5]: + | TFF3 expression (Exp, A = DAC treatment) [5]: ++ | Dab2 expression (Exp, A = DAC treatment) [6]: + | GATA-4 expression (Exp, A = DAC treatment) [6]: + | GATA-5 expression (Exp, A = DAC treatment) [6]: + | GATA-6 expression (Exp, A = DAC treatment) [6]: + | Inhibin α expression (Exp, A = DAC treatment) [6]: ++ | TFF1 expression (Exp, A = DAC treatment) [6]: + | TFF2 expression (Exp, A = DAC treatment) [6]: + | TFF3 expression (Exp, A = DAC treatment) [6]: + | Dab2 expression (Exp, A = DAC treatment) [7, 12]: + | GATA-4 expression (Exp, A = DAC treatment) [7, 12]: + | GATA-5 expression (Exp, A = DAC treatment) [7, 12]: + | GATA-6 expression (Exp, A = DAC treatment) [7, 12]: + | Inhibin α expression (Exp, A = DAC treatment) [7, 12]: ++ | TFF1 expression (Exp, A = DAC treatment) [7, 12]: + | TFF2 expression (Exp, A = DAC treatment) [7, 12]: − | TFF3 expression (Exp, A = DAC treatment) [7, 12]: + | TFF2 re-expression after DAC treatment ([7]; Az521): did not re-express | re-expression of each basally silent GATA gene, except GATA-1 ([8]; DAC treatment, RT-PCR): re-expressed | low basal expression of TFF1, TFF3, inhibin α after DAC ([8]; DAC, in many instances): further increased | activation of each downstream gene (TFF1, TFF2, TFF3, inhibin α, Dab2) ([8]; DAC, virtually every cell line in which the gene lacked basal expression): activated

CC(/C=C/C(=O)NO)=C\[C@@H](C)C(=O)c1ccc(N(C)C)cc1 [TSA]
reactivation of the silenced GATA-4 and GATA-5 genes ([9]; TSA alone): failed to reactivate | reactivating expression of the silenced GATA-4 and GATA-5 genes ([9]; TSA applied with a low dose of DAC): synergistic
